Source: US10710978B2, “STK4 inhibitors for treatment of hematologic malignancies” (Dana-Farber Cancer Institute, Inc., priority 2015, dated 2020)
Several values for one entry are separate records, joined by “and”; a condition that tells them apart may be missing. Identical values can stand only once. Like-named read-outs stand apart in the source and are kept apart here.

Experiments:
p-MOB1 = assay: Western blotting; assay type: cell-based; details: MM.1S cells, 1 μM and 10 μM, 6 hours
Text: MM.1S, KMS20 and H929 cells are counted, diluted and plated. Cells are then […] with DMSO or different concentration of a compound of the present application for 6 hrs, 24 hrs or 48 hrs. MM cells are then collected and centrifuged at RT and the pellets are re-suspended in lysis buffer. Cell lysates are subjected to sodium dodecyl sulfate-polyacrylamide gel electrophoresis SDS-PAGE, transferred to nitrocellulose membranes, and immunoblotted with different antibodies.
MM.1S, KMS20 and H929 cells were counted, diluted and plated in six-well plates to a final concentration of 500,000 cells/well. Cells were then […] with DMSO or different concentration of a compound of the present application for 6 hrs, 24 hrs or 48 hrs. MM cells were then collected and centrifuged for 5 min, 1300 rpm at RT. The pellets were re-suspended in lysis buffer Laemli 1× (Laemli 5×: SDS 10%, DTT 500 mM, Tris-HCl pH6.8 0.4M, BromoFenol Blue, Glycerol 50%). Cell lysates were subjected to sodium dodecyl sulfate-polyacrylamide gel electrophoresis SDS-PAGE, transferred to nitrocellulose membranes, and immunoblotted with different antibodies: YAP1 (#4912), p-YAP1 (S127) (#13008), LATS1 (#9153), p-LATS1 (Thr1079) (#8654), MOB1 (#3863), p-MOB1 (Thr12) (#8843), p-MST1/p-MST2 (Thr183/Thr180) (#3681), p21 (#2947), PARP (#9532), ERK, STAT, and GAPDH (#5174) from Cell Signaling, Beverly, Mass., United States; STK4 (ab57836) (from Abcam, Cambridge, Mass., United States); PUMA (sc-28226), BAX (sc-20067), from Santa Cruz, Dallas, Tex., United States; β-actin from Sigma-Aldrich (St. Louis, Mo., United States). All antibodies were diluted 1:500, except for β-actin antibody (1:50,000 dilution). In FIG. 8, H929 cells were treated with Compound I-9 or DMSO at 1 μM concentration for 24 hours. Lysates were then obtained and immunoblot was performed using antibodies against PARP, YAP1, PUMA, BAX. p21, and GAPDH.
In FIGS. 26A-26J, MM.1S cells were treated with Compound I-6, Compound I-31, Compound I-30, Compound I-22, Compound I-27, Compound I-1, Compound I-23, Compound I-13, Compound I-28, Compound I-9, or DMSO at 1 μM and 10 μM concentrations for 6 hours. Lysates were then obtained and immunoblot was performed using antibodies against MOB1 and p-MOB1. As shown from FIGS. 26A-26J, Compound I-22, Compound I-27, Compound I-1, Compound I-23, Compound I-13, Compound I-28, and Compound I-9 reduced PMOB1 levels at different concentrations.

KHS2 = KHS2 (Homo sapiens (Human), UniProt Q8IVH8); assay: KiNativ assay; assay type: binding; details: H929 live cell
In short: (§1)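 Compounds were tested in duplicate at 10 μM in live H929 cells, and kinase engagement was profiled by KiNativ with mass spectrometry read-out to derive IC50.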

AKT2, AKT3 = assay: KiNativ assay; assay type: binding; details: H929 live cell; for % inhibition (range): 10 μM
In short: (§2)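 Screening used intact H929 cells treated with each compound at 10 μM in duplicate; KiNativ labelling followed, and MS quantitation yielded IC50.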

RIPK3 = RIPK3 (Homo sapiens (Human), UniProt Q9Y572); assay: KiNativ assay; assay type: binding; details: H929 live cell
In short: as §2

PDK1 = PDK1 (Homo sapiens (Human), UniProt O15530); assay: KiNativ assay; assay type: binding; details: H929 live cell
In short: as §2

DNAPK = DNAPK (Homo sapiens (Human), UniProt P78527); assay: KiNativ assay; assay type: binding; details: H929 live cell; for % inhibition (range): 10 μM
Protocol: Biochemical IC50s of the compounds of the present disclosure against various kinases were measured in a KiNativ assay. Compounds were screened in duplicate at 10 μM in H929 live cell. IC50 was measured via Mass spectroscopy (MS).

CK1g1 = CK1g1 (Homo sapiens (Human), UniProt Q9HCP0); assay: KiNativ assay; assay type: binding; details: H929 live cell
In short: as §1

PCTAIRE1, PCTAIRE3 = assay: KiNativ assay; assay type: binding; details: H929 live cell; for % inhibition: 10 μM, range class
In short: as §2

LZK = LZK (Homo sapiens (Human), UniProt O43283); assay: KiNativ assay; assay type: binding; details: H929 live cell
In short: as §2

LATS2 = LATS2 (Homo sapiens (Human), UniProt Q9NRM7); assay: KiNativ assay; assay type: binding; details: H929 live cell
In short: as §1

CLK3 = CLK3 (Homo sapiens (Human), UniProt P49761); assay: KiNativ assay; assay type: binding; details: H929 live cell
In short: as §1

AGK = AGK (Homo sapiens (Human), UniProt Q53H12); assay: KiNativ assay; assay type: binding; details: H929 live cell
In short: as §2

MER, TYRO3 = assay: KiNativ assay; assay type: binding; details: H929 live cell; for % inhibition: 10 μM, range class
In short: as §1

PAK2 = PAK2 (Homo sapiens (Human), UniProt Q13177); assay: KiNativ assay; assay type: binding; details: H929 live cell
In short: as §2

PCTAIRE2, PCTAIRE3 = assay: KiNativ assay; assay type: binding; details: H929 live cell; for % inhibition: 10 μM, range class
In short: as §2

MLK4 = MLK4 (Homo sapiens (Human), UniProt Q5TCX8); assay: KiNativ assay; assay type: binding; details: H929 live cell
In short: as §1

MAP3K6 = MAP3K6 (Homo sapiens (Human), UniProt O95382); assay: KiNativ assay; assay type: binding; details: H929 live cell
In short: as §1

Erk5 = Erk5 (Homo sapiens (Human), UniProt Q13164); assay: KiNativ assay; assay type: binding; details: H929 live cell
In short: as §1

MELK = MELK (Homo sapiens (Human), UniProt Q14680); assay: KiNativ assay; assay type: binding; details: H929 live cell
In short: as §1

MAP3K3 = MAP3K3 (Homo sapiens (Human), UniProt Q99759); assay: KiNativ assay; assay type: binding; details: H929 live cell
In short: as §2

[1] = range class, read-out: % inhibition

MLK4, sequence (Q5TCX8 whole entry): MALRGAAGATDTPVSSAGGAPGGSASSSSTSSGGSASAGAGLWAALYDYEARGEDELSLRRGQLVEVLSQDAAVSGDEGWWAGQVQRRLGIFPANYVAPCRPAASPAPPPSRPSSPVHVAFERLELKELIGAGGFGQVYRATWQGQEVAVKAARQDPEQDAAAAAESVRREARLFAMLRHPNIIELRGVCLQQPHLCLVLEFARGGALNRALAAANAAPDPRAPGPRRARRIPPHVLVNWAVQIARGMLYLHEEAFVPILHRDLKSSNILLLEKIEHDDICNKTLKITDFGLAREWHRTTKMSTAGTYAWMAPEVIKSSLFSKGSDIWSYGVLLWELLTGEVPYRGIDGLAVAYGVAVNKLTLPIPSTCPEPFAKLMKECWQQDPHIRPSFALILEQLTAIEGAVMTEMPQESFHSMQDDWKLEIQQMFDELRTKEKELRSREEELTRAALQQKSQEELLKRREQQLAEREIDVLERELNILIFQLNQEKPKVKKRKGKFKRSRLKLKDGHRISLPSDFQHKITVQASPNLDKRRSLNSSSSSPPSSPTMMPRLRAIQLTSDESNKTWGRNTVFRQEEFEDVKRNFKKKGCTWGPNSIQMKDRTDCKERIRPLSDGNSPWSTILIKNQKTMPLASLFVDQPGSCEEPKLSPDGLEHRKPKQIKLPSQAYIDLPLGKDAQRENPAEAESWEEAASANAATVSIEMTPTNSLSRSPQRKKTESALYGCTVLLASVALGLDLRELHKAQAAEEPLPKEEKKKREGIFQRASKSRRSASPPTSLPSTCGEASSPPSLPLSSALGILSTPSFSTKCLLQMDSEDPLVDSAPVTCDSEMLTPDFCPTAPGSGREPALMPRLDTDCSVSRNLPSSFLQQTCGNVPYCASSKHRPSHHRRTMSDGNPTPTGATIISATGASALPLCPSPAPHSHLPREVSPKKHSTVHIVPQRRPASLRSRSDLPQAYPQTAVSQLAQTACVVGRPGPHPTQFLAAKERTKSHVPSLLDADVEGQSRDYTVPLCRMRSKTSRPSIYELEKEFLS
PDK1, sequence (O15530 whole entry): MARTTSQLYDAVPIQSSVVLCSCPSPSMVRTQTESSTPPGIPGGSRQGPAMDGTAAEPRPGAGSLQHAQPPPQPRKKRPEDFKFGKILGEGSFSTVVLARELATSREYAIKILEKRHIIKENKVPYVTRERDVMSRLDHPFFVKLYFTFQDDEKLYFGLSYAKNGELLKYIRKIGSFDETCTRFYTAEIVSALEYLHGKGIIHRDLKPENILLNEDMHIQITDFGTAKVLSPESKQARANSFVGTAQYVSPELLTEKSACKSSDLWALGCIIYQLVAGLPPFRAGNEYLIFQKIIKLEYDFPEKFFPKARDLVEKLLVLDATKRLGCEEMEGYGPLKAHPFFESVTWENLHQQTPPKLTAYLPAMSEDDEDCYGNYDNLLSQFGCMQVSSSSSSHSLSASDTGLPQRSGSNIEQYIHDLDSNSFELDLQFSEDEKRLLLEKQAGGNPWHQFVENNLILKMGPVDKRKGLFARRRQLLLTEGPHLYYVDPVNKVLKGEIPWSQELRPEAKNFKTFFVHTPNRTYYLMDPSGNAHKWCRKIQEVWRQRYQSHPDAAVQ
MAP3K3, sequence (Q99759 whole entry): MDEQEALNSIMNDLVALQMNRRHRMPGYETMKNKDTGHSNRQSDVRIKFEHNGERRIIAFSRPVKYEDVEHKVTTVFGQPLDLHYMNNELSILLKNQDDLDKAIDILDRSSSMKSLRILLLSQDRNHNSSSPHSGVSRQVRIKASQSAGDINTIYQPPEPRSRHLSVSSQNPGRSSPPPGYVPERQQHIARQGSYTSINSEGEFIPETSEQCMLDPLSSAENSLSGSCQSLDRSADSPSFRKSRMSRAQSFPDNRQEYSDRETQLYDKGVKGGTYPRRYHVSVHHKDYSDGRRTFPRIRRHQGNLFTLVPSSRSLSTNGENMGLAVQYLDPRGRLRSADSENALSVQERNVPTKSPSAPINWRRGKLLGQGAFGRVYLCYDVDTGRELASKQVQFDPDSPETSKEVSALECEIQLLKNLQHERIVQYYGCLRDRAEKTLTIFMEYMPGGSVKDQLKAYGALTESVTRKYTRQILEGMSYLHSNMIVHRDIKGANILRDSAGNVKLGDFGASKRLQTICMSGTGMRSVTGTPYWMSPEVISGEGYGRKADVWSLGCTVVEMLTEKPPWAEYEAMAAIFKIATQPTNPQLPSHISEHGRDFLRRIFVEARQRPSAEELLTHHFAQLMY
CLK3, sequence (P49761 whole entry): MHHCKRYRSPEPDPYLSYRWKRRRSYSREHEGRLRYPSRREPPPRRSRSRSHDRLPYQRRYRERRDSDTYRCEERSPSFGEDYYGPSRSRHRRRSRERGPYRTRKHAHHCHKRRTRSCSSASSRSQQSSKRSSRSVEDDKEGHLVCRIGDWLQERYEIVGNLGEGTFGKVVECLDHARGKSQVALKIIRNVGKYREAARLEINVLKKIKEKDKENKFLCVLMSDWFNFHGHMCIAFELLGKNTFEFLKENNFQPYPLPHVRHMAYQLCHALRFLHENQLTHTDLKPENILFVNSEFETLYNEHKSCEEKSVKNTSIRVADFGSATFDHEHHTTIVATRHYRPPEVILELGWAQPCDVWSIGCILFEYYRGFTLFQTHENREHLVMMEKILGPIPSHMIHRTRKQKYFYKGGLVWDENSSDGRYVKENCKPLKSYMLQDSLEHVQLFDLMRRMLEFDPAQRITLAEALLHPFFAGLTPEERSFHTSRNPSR
RIPK3, sequence (Q9Y572 whole entry): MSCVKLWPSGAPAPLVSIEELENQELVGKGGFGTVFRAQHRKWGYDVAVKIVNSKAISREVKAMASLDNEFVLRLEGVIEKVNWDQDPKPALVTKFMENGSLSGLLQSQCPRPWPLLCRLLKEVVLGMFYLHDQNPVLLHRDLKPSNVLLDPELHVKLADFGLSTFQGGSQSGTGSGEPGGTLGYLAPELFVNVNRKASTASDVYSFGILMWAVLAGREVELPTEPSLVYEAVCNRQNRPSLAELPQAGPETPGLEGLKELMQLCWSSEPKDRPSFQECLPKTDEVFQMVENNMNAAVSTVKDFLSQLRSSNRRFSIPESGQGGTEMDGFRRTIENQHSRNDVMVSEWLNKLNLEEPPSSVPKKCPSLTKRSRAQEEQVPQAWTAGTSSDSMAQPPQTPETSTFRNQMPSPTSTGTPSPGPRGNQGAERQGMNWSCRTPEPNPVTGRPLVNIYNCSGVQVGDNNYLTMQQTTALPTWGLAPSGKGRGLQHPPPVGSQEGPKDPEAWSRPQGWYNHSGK
AGK, sequence (Q53H12 whole entry): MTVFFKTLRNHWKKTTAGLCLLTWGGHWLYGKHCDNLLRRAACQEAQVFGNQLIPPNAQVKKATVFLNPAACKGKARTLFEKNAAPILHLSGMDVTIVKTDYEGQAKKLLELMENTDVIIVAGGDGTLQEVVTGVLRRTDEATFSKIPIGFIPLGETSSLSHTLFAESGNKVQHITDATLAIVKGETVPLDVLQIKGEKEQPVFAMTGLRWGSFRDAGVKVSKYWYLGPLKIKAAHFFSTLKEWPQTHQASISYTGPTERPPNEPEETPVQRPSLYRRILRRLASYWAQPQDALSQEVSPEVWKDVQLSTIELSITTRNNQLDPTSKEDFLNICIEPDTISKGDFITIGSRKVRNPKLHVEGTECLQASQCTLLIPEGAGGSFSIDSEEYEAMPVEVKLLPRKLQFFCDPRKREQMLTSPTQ
MELK, sequence (Q14680 whole entry): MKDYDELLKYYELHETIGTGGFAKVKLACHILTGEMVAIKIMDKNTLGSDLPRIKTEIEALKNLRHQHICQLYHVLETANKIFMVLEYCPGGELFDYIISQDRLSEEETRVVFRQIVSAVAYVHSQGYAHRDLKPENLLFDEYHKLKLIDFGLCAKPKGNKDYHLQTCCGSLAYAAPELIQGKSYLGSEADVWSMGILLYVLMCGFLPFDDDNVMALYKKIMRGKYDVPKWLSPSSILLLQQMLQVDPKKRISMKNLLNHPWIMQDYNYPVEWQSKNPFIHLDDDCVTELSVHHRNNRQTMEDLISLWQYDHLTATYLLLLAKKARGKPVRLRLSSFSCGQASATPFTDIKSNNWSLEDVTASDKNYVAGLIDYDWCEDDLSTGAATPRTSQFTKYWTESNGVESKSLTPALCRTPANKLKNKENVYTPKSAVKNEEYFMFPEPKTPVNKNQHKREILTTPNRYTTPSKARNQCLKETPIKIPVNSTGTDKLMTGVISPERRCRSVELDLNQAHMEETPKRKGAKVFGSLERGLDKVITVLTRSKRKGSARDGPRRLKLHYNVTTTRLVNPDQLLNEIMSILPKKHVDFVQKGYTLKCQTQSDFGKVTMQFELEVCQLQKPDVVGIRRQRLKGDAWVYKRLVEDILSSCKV
PAK2, sequence (Q13177 whole entry): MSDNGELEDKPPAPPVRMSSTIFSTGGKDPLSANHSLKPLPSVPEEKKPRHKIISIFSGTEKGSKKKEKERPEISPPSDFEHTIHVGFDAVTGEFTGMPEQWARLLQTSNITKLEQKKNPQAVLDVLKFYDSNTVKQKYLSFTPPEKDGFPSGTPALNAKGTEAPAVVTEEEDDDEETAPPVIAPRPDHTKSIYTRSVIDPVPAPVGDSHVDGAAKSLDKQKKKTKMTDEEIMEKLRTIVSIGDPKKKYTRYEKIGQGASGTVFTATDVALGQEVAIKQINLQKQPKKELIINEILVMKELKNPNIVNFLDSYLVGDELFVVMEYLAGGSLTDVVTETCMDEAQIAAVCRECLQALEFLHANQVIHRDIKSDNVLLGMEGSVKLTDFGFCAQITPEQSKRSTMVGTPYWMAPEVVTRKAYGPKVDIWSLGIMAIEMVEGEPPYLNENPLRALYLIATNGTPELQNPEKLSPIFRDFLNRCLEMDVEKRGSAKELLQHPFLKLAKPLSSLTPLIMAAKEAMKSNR

Structure (SMILES)	PMOB1 levels (p-MOB1)	inhibition at 10 µM (KHS2; read-out: % inhibition (range)) [%]	inhibition at 10 µM (KHS2; read-out: inhibition (10 μM)) [%]	% inhibition (range) (AKT2, AKT3) [%]	inhibition (10 μM) (AKT2, AKT3) [%]	inhibition at 10 µM (RIPK3; read-out: inhibition (10 μM)) [%]	inhibition at 10 µM (PDK1; read-out: % inhibition (range)) [%]	inhibition at 10 µM (PDK1; read-out: inhibition (10 μM)) [%]	inhibition (10 μM) (DNAPK)	inhibition at 10 µM (CK1g1; read-out: % inhibition (range)) [%]	inhibition at 10 µM (CK1g1; read-out: inhibition (10 μM)) [%]	% inhibition (PCTAIRE1, PCTAIRE3) [%]	inhibition (10 μM) (PCTAIRE1, PCTAIRE3) [%]	inhibition at 10 µM (LZK; [1]) [%]	inhibition at 10 µM (LZK; read-out: inhibition (10 μM)) [%]	inhibition at 10 µM (LATS2; [1]) [%]	inhibition at 10 µM (LATS2; read-out: inhibition (10 μM)) [%]	inhibition at 10 µM (CLK3; [1]) [%]	inhibition at 10 µM (CLK3; read-out: inhibition (10 μM)) [%]	inhibition at 10 µM (AGK; [1]) [%]	other results
Nc1ncc(-c2cc([N+](=O)[O-])ccc2F)cc1-c1ccc2c(c1)CCNC2=O [Compound I-1, 6-(2-amino-5-(2-fluoro-5-nitrophenyl)pyridin-3-yl)-3,4-dihydroisoquinolin-1(2H)-one]	reduced	–	–	–	–	–	–	–	–	–	–	–	–	–	–	–	–	–	–	–	–
Nc1ncc(-c2cccc([N+](=O)[O-])c2F)cc1-c1ccc2c(c1)CCNC2=O [Compound I-9, 6-(2-amino-5-(2-fluoro-3-nitrophenyl)pyridin-3-yl)-3,4-dihydroisoquinolin-1(2H)-one]	reduced	50 to 75	69.5	0.0	−1.3	-33.4	0	28.1	94.0%	75 to 90	> 85	–	–	–	–	–	–	–	–	–	inhibition at 10 µM (RIPK3; read-out: % inhibition (range)): 0%; % inhibition (range) (DNAPK): >90%; inhibition at 10 µM (DNAPK; read-out: % inhibition (range)): 75 to 90%; inhibition at 10 µM (DNAPK; read-out: inhibition (10 μM)): 79.4%
Nc1ncc(-c2cccc3ncsc23)cc1-c1ccc2c(c1)CCNC2=O [Compound I-13, 6-(2-amino-5-(benzo[d]thiazol-7-yl)pyridin-3-yl)-3,4-dihydroisoquinolin-1(2H)-one]	reduced	0	1.7	0.0	19.0	-25.9	0	17.5	59.4%	75 to 90	> 85	–	–	–	–	–	–	–	–	–	inhibition at 10 µM (RIPK3; read-out: % inhibition (range)): 0%; % inhibition (range) (DNAPK): 50-75%; inhibition at 10 µM (DNAPK; read-out: % inhibition (range)): 35 to 50%; inhibition at 10 µM (DNAPK; read-out: inhibition (10 μM)): 44.7%
CN(C1CC1)S(=O)(=O)c1ccc(-c2cnc(N)c(-c3ccc4c(c3)CCNC4=O)c2)c(F)c1 [Compound I-28, 4-(6-amino-5-(1-oxo-1,2,3,4-tetrahydroisoquinolin-6-yl)pyridin-3-yl)-N-cyclopropyl-3-fluoro-N-methylbenzenesulfonamide]	reduced	50 to 75	68.3	0.0	14.9	-121	0	5.9	42.6% and 82.1%	75 to 90	> 85	–	–	–	–	–	–	–	–	–	–
COc1cc(NS(=O)(=O)C2CC2)ccc1-c1cnc(N)c(-c2ccc3c(c2)CCNC3=O)c1 [Compound I-50, N-(4-(6-amino-5-(1-oxo-1,2,3,4-tetrahydroisoquinolin-6-yl)pyridin-3-yl)-3-methoxyphenyl) cyclopropanesulfonamide]	–	–	–	–	–	–	–	–	–	–	–	0.0	−3.5	0	1.3	0	1.1	0	1.5	0	inhibition at 10 µM (AGK; read-out: inhibition (10 μM)): 11.5%; % inhibition (MER, TYRO3): 0.0%; inhibition (10 μM) (MER, TYRO3): −2.0%; inhibition at 10 µM (PAK2; [1]): 0%; inhibition at 10 µM (PAK2; read-out: inhibition (10 μM)): 20.2%; % inhibition (PCTAIRE2, PCTAIRE3): 0.0%; inhibition (10 μM) (PCTAIRE2, PCTAIRE3): −8.9%; inhibition at 10 µM (MLK4; [1]): 0%; inhibition at 10 µM (MLK4; read-out: inhibition (10 μM)): 30.2%; inhibition at 10 µM (MAP3K6; [1]): 0%; inhibition at 10 µM (MAP3K6; read-out: inhibition (10 μM)): -5.4%; inhibition at 10 µM (Erk5; [1]): 0%; inhibition at 10 µM (Erk5; read-out: inhibition (10 μM)): -2.8%; inhibition at 10 µM (MELK; [1]): 35 to 40%; inhibition at 10 µM (MELK; read-out: inhibition (10 μM)): 45.9%; inhibition at 10 µM (DNAPK; [1]): 0%; inhibition at 10 µM (MAP3K3; [1]): 0%; inhibition at 10 µM (MAP3K3; read-out: inhibition (10 μM)): -5.7%
Nc1ncc(-c2ccc(NS(=O)(=O)C3CC3)cc2F)cc1-c1ccc2c(c1)CCNC2=O [Compound I-51, N-(4-(6-amino-5-(1-oxo-1,2,3,4-tetrahydroisoquinolin-6-yl)pyridin-3-yl)-3-fluorophenyl) cyclopropanesulfonamide]	–	–	–	–	–	–	–	–	–	–	–	0.0	29.4	0	11.3	0	16.1	0	23.3	0	inhibition at 10 µM (AGK; read-out: inhibition (10 μM)): -12.1%; % inhibition (MER, TYRO3): 0.0%; inhibition (10 μM) (MER, TYRO3): −11.0%; inhibition at 10 µM (PAK2; [1]): 0%; inhibition at 10 µM (PAK2; read-out: inhibition (10 μM)): -14%; % inhibition (PCTAIRE2, PCTAIRE3): 0.0%; inhibition (10 μM) (PCTAIRE2, PCTAIRE3): 5.1%; inhibition at 10 µM (MLK4; [1]): 0%; inhibition at 10 µM (MLK4; read-out: inhibition (10 μM)): 14.2%; inhibition at 10 µM (MAP3K6; [1]): 0%; inhibition at 10 µM (MAP3K6; read-out: inhibition (10 μM)): 24.4%; inhibition at 10 µM (Erk5; [1]): 0%; inhibition at 10 µM (Erk5; read-out: inhibition (10 μM)): -13.2%; inhibition at 10 µM (MELK; [1]): 35 to 40%; inhibition at 10 µM (MELK; read-out: inhibition (10 μM)): 49.5%; inhibition at 10 µM (MAP3K3; [1]): 0%; inhibition at 10 µM (MAP3K3; read-out: inhibition (10 μM)): -29.3%
Nc1ncc(-c2ccc(NS(=O)(=O)C3CC3)cc2OC2CCCCC2)cc1-c1ccc2c(c1)CCNC2=O [Compound I-65, N-(4-(6-amino-5-(1-oxo-1,2,3,4-tetrahydroisoquinolin-6-yl)pyridin-3-yl)-3-(cyclohexyloxy)phenyl) cyclopropanesulfonamide]	–	–	–	–	–	–	–	–	–	–	–	0.0	2.3	35 to 40	43.1	0	-0.2	35 to 40	40	0	inhibition at 10 µM (AGK; read-out: inhibition (10 μM)): -21.2%; % inhibition (MER, TYRO3): 0.0%; inhibition (10 μM) (MER, TYRO3): 4.6%; inhibition at 10 µM (PAK2; [1]): 0%; inhibition at 10 µM (PAK2; read-out: inhibition (10 μM)): 1.7%; % inhibition (PCTAIRE2, PCTAIRE3): 0.0%; inhibition (10 μM) (PCTAIRE2, PCTAIRE3): 20.3%; inhibition at 10 µM (MLK4; [1]): 50 to 75%; inhibition at 10 µM (MLK4; read-out: inhibition (10 μM)): 56.9%; inhibition at 10 µM (MAP3K6; [1]): 0%; inhibition at 10 µM (MAP3K6; read-out: inhibition (10 μM)): -7.2%; inhibition at 10 µM (Erk5; [1]): 0%; inhibition at 10 µM (Erk5; read-out: inhibition (10 μM)): -6.5%; inhibition at 10 µM (MELK; [1]): 50 to 75%; inhibition at 10 µM (MELK; read-out: inhibition (10 μM)): 56.5%; inhibition at 10 µM (MAP3K3; [1]): 0%; inhibition at 10 µM (MAP3K3; read-out: inhibition (10 μM)): -28.3%
